Laboratory results taken from patent US20230085307A1, “PYRIDAZINONE COMPOUND AND HERBICIDE” (NISSAN CHEMICAL CORPORATION, priority 2019, published 2023).

Legend:
late watergrass = experiment: Test Example 1: herbicidal activity, application before weed generation under submerged conditions (Table 16, symbol A); assay type: in vivo, late watergrass (Echinochloa oryzicola); conditions: 320 g/ha applied herbicide
Summary of the method: (§1)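 Alluvial soil was flooded to 4 cm depth, weed seeds were sown mixed and 2.5-leaf rice seedlings were transplanted. On sowing day, the compound's emulsion, diluted in water to a set dose, was applied to the water surface. Plants grew at 25–30 °C and were scored 0–5 after three weeks.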

Japanese bulrush = experiment: Test Example 1: herbicidal activity, application before weed generation under submerged conditions (Table 16, symbol B); assay type: in vivo, Japanese bulrush (Schoenoplectus juncoides); conditions: 320 g/ha applied herbicide
Summary of the method: as §1

oval-leafed pondweed = experiment: Test Example 1: herbicidal activity, application before weed generation under submerged conditions (Table 16, symbol C); assay type: in vivo, oval-leafed pondweed (Monochoria vaginalis); conditions: 320 g/ha applied herbicide
Summary of the method: as §1

barnyard grass [1] = experiment: Test Example 3: herbicidal effect by foliage application, Wagner pot (Table 18, symbol H); assay type: in vivo, barnyard grass (Echinochloa crus-galli); conditions: amount of applied herbicide 320 g/ha
Summary of the method: (§2)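 Plants were sown in alluvial soil held under 0.1–0.5 cm standing water and grown 14 days in a greenhouse at 25–30 °C. An emulsifiable formulation, water-diluted to the set dose, was then sprayed onto the foliage, and effects were scored three weeks later using previously defined criteria.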

Chinese sprangletop = experiment: Test Example 3: herbicidal effect by foliage application, Wagner pot (Table 18, symbol D); assay type: in vivo, chinese sprangletop (Leptochloa chinensis); conditions: amount of applied herbicide 320 g/ha
Summary of the method: as §2

rice flat sedge = experiment: Test Example 3: herbicidal effect by foliage application, Wagner pot (Table 18, symbol E); assay type: in vivo, rice flat sedge (Cyperus iria); conditions: amount of applied herbicide 320 g/ha
Summary of the method: as §2

southern crabgrass [2] = experiment: Test Example 4: herbicidal effect by soil treatment (Table 19, symbol F); assay type: in vivo, southern crabgrass (Digitaria ciliaris); conditions: amount of applied herbicide 320 g/ha
Summary of the method: (§3)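 Applied as a water-diluted emulsion, the compound was sprayed onto soil covering newly sown seeds. Evaluation came three weeks after application, in a greenhouse held at 25° C. to 30° C.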

green foxtail [3] = experiment: Test Example 4: herbicidal effect by soil treatment (Table 19, symbol G); assay type: in vivo, green foxtail (Setaria viridis); conditions: amount of applied herbicide 320 g/ha
Summary of the method: as §3

barnyard grass [4] = experiment: Test Example 4: herbicidal effect by soil treatment (Table 19, symbol H); assay type: in vivo, barnyard grass (Echinochloa crus-galli); conditions: amount of applied herbicide 320 g/ha
Summary of the method: as §3

wild oat [5] = experiment: Test Example 4: herbicidal effect by soil treatment (Table 19, symbol I); assay type: in vivo, wild oat (Avena fatua); conditions: amount of applied herbicide 320 g/ha
Summary of the method: as §3

blackgrass [6] = experiment: Test Example 4: herbicidal effect by soil treatment (Table 19, symbol J); assay type: in vivo, blackgrass (Alopecurus myosuroides); conditions: amount of applied herbicide 320 g/ha
Summary of the method: as §3

Italian ryegrass [7] = experiment: Test Example 4: herbicidal effect by soil treatment (Table 19, symbol K); assay type: in vivo, Italian ryegrass (Lolium multiflorum); conditions: amount of applied herbicide 320 g/ha
Summary of the method: as §3

windgrass [8] = experiment: Test Example 4: herbicidal effect by soil treatment (Table 19, symbol L); assay type: in vivo, windgrass (Apera spica-venti); conditions: amount of applied herbicide 320 g/ha
Summary of the method: as §3

velvetleaf [9] = experiment: Test Example 4: herbicidal effect by soil treatment (Table 19, symbol M); assay type: in vivo, velvetleaf (Abutilon theophrasti); conditions: amount of applied herbicide 320 g/ha
Summary of the method: as §3

redroot pigweed [10] = experiment: Test Example 4: herbicidal effect by soil treatment (Table 19, symbol N); assay type: in vivo, redroot pigweed (Amaranthus retroflexus); conditions: amount of applied herbicide 320 g/ha
Summary of the method: as §3

lambsquarters [11] = experiment: Test Example 4: herbicidal effect by soil treatment (Table 19, symbol O); assay type: in vivo, lambsquarters (Chenopodium album); conditions: amount of applied herbicide 320 g/ha
Summary of the method: as §3

chickweed [12] = experiment: Test Example 4: herbicidal effect by soil treatment (Table 19, symbol P); assay type: in vivo, common chickweed (Stellaria media); conditions: amount of applied herbicide 320 g/ha
Summary of the method: as §3

persian speedwell [13] = experiment: Test Example 4: herbicidal effect by soil treatment (Table 19, symbol R); assay type: in vivo, Persian speedwell (Veronica persica); conditions: amount of applied herbicide 320 g/ha
Summary of the method: as §3

southern crabgrass [14] = experiment: Test Example 5: herbicidal effect by foliage application, plastic box (Table 20, symbol F); assay type: in vivo, southern crabgrass (Digitaria ciliaris); conditions: foliage application, 320 g/ha, evaluated three weeks after application
Summary of the method: (§4)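 Sow seeds spot-wise in sterilized diluvial soil; cover with ~1.5 cm soil. Grow 14 days in greenhouse, 25° C. to 30° C. Spray foliage with emulsion diluted to predetermined amount. Rate effect after 3 weeks.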

green foxtail [15] = experiment: Test Example 5: herbicidal effect by foliage application, plastic box (Table 20, symbol G); assay type: in vivo, green foxtail (Setaria viridis); conditions: foliage application, 320 g/ha, evaluated three weeks after application
Summary of the method: as §4

barnyard grass [16] = experiment: Test Example 5: herbicidal effect by foliage application, plastic box (Table 20, symbol H); assay type: in vivo, barnyard grass (Echinochloa crus-galli); conditions: foliage application, 320 g/ha, evaluated three weeks after application
Summary of the method: as §4

wild oat [17] = experiment: Test Example 5: herbicidal effect by foliage application, plastic box (Table 20, symbol I); assay type: in vivo, wild oat (Avena fatua); conditions: foliage application, 320 g/ha, evaluated three weeks after application
Summary of the method: as §4

blackgrass [18] = experiment: Test Example 5: herbicidal effect by foliage application, plastic box (Table 20, symbol J); assay type: in vivo, blackgrass (Alopecurus myosuroides); conditions: foliage application, 320 g/ha, evaluated three weeks after application
Summary of the method: as §4

Italian ryegrass [19] = experiment: Test Example 5: herbicidal effect by foliage application, plastic box (Table 20, symbol K); assay type: in vivo, Italian ryegrass (Lolium multiflorum); conditions: foliage application, 320 g/ha, evaluated three weeks after application
Summary of the method: as §4

windgrass [20] = experiment: Test Example 5: herbicidal effect by foliage application, plastic box (Table 20, symbol L); assay type: in vivo, windgrass (Apera spica-venti); conditions: foliage application, 320 g/ha, evaluated three weeks after application
Summary of the method: as §4

velvetleaf [21] = experiment: Test Example 5: herbicidal effect by foliage application, plastic box (Table 20, symbol M); assay type: in vivo, velvetleaf (Abutilon theophrasti); conditions: foliage application, 320 g/ha, evaluated three weeks after application
Summary of the method: as §4

redroot pigweed [22] = experiment: Test Example 5: herbicidal effect by foliage application, plastic box (Table 20, symbol N); assay type: in vivo, redroot pigweed (Amaranthus retroflexus); conditions: foliage application, 320 g/ha, evaluated three weeks after application
Summary of the method: as §4

lambsquarters [23] = experiment: Test Example 5: herbicidal effect by foliage application, plastic box (Table 20, symbol O); assay type: in vivo, lambsquarters (Chenopodium album); conditions: foliage application, 320 g/ha, evaluated three weeks after application
Summary of the method: as §4

chickweed [24] = experiment: Test Example 5: herbicidal effect by foliage application, plastic box (Table 20, symbol P); assay type: in vivo, common chickweed (Stellaria media); conditions: foliage application, 320 g/ha, evaluated three weeks after application
Summary of the method: as §4

persian speedwell [25] = experiment: Test Example 5: herbicidal effect by foliage application, plastic box (Table 20, symbol R); assay type: in vivo, Persian speedwell (Veronica persica); conditions: foliage application, 320 g/ha, evaluated three weeks after application
Summary of the method: as §4

Compound	Herbicidal effect on A: late watergrass (grade 0-5) (late watergrass)	Herbicidal effect on B: Japanese bulrush (grade 0-5) (Japanese bulrush)	Herbicidal effect on C: oval-leafed pondweed (grade 0-5) (oval-leafed pondweed)	herbicidal effect on H: barnyard grass (barnyard grass [1])	herbicidal effect on D: Chinese sprangletop (Chinese sprangletop)	herbicidal effect on E: rice flat sedge (rice flat sedge)	F: southern crabgrass, herbicidal effect rating (southern crabgrass [2])	G: green foxtail, herbicidal effect rating (green foxtail [3])	H: barnyard grass, herbicidal effect rating (barnyard grass [4])	I: wild oat, herbicidal effect rating (wild oat [5])	J: blackgrass, herbicidal effect rating (blackgrass [6])	K: Italian ryegrass, herbicidal effect rating (Italian ryegrass [7])	L: windgrass, herbicidal effect rating (windgrass [8])	M: velvetleaf, herbicidal effect rating (velvetleaf [9])	N: redroot pigweed, herbicidal effect rating (redroot pigweed [10])	O: lambsquarters, herbicidal effect rating (lambsquarters [11])	P: chickweed, herbicidal effect rating (chickweed [12])	R: persian speedwell, herbicidal effect rating (persian speedwell [13])	herbicidal effect on F: southern crabgrass (criteria 0-5) (southern crabgrass [14])	herbicidal effect on G: green foxtail (criteria 0-5) (green foxtail [15])	further results
CCCC(=O)Oc1c(C)nn(C)c(=O)c1-c1c(-c2cccc(OC)c2)sc2ccc(F)cc12 [2-210]	3 (Herbicidal rate of 40% or more and less than 70%)	0 (Herbicidal rate of 5% or less (almost no effect))	0 (Herbicidal rate of 5% or less (almost no effect))	5 (Herbicidal rate of 90% or more (almost completely withered))	5 (Herbicidal rate of 90% or more (almost completely withered))	5 (Herbicidal rate of 90% or more (almost completely withered))	4 (Herbicidal rate of 70% or more and less than 90%)	4 (Herbicidal rate of 70% or more and less than 90%)	4 (Herbicidal rate of 70% or more and less than 90%)	0 (Herbicidal rate of 5% or less (almost no effect))	1 (Herbicidal rate of 5% or more and less than 20%)	4 (Herbicidal rate of 70% or more and less than 90%)	0 (Herbicidal rate of 5% or less (almost no effect))	2 (Herbicidal rate of 20% or more and less than 40%)	5 (Herbicidal rate of 90% or more (almost completely withered))	1 (Herbicidal rate of 5% or more and less than 20%)	4 (Herbicidal rate of 70% or more and less than 90%)	5 (Herbicidal rate of 90% or more (almost completely withered))	5 (Herbicidal rate of 90% or more (almost completely withered))	5 (Herbicidal rate of 90% or more (almost completely withered))	herbicidal effect on H: barnyard grass (criteria 0-5) (barnyard grass [16]): 4 (Herbicidal rate of 70% or more and less than 90%); herbicidal effect on I: wild oat (criteria 0-5) (wild oat [17]): 0 (Herbicidal rate of 5% or less (almost no effect)); herbicidal effect on J: blackgrass (criteria 0-5) (blackgrass [18]): 3 (Herbicidal rate of 40% or more and less than 70%); herbicidal effect on K: Italian ryegrass (criteria 0-5) (Italian ryegrass [19]): 4 (Herbicidal rate of 70% or more and less than 90%); herbicidal effect on L: windgrass (criteria 0-5) (windgrass [20]): 5 (Herbicidal rate of 90% or more (almost completely withered)); herbicidal effect on M: velvetleaf (criteria 0-5) (velvetleaf [21]): 5 (Herbicidal rate of 90% or more (almost completely withered)); herbicidal effect on N: redroot pigweed (criteria 0-5) (redroot pigweed [22]): 5 (Herbicidal rate of 90% or more (almost completely withered)); herbicidal effect on O: lambsquarters (criteria 0-5) (lambsquarters [23]): 4 (Herbicidal rate of 70% or more and less than 90%); herbicidal effect on P: chickweed (criteria 0-5) (chickweed [24]): 5 (Herbicidal rate of 90% or more (almost completely withered)); herbicidal effect on R: persian speedwell (criteria 0-5) (persian speedwell [25]): 5 (Herbicidal rate of 90% or more (almost completely withered))
CCCOc1cccc(-c2sc3ccc(F)cc3c2-c2c(O)c(C)nn(C)c2=O)c1 [2-213]	3 (Herbicidal rate of 40% or more and less than 70%)	0 (Herbicidal rate of 5% or less (almost no effect))	0 (Herbicidal rate of 5% or less (almost no effect))	4 (Herbicidal rate of 70% or more and less than 90%)	3 (Herbicidal rate of 40% or more and less than 70%)	3 (Herbicidal rate of 40% or more and less than 70%)	5 (Herbicidal rate of 90% or more (almost completely withered))	4 (Herbicidal rate of 70% or more and less than 90%)	3 (Herbicidal rate of 40% or more and less than 70%)	0 (Herbicidal rate of 5% or less (almost no effect))	0 (Herbicidal rate of 5% or less (almost no effect))	4 (Herbicidal rate of 70% or more and less than 90%)	0 (Herbicidal rate of 5% or less (almost no effect))	0 (Herbicidal rate of 5% or less (almost no effect))	5 (Herbicidal rate of 90% or more (almost completely withered))	1 (Herbicidal rate of 5% or more and less than 20%)	3 (Herbicidal rate of 40% or more and less than 70%)	5 (Herbicidal rate of 90% or more (almost completely withered))	5 (Herbicidal rate of 90% or more (almost completely withered))	4 (Herbicidal rate of 70% or more and less than 90%)	herbicidal effect on H: barnyard grass (criteria 0-5) (barnyard grass [16]): 3 (Herbicidal rate of 40% or more and less than 70%); herbicidal effect on I: wild oat (criteria 0-5) (wild oat [17]): 0 (Herbicidal rate of 5% or less (almost no effect)); herbicidal effect on J: blackgrass (criteria 0-5) (blackgrass [18]): 3 (Herbicidal rate of 40% or more and less than 70%); herbicidal effect on K: Italian ryegrass (criteria 0-5) (Italian ryegrass [19]): 4 (Herbicidal rate of 70% or more and less than 90%); herbicidal effect on L: windgrass (criteria 0-5) (windgrass [20]): 4 (Herbicidal rate of 70% or more and less than 90%); herbicidal effect on M: velvetleaf (criteria 0-5) (velvetleaf [21]): 1 (Herbicidal rate of 5% or more and less than 20%); herbicidal effect on N: redroot pigweed (criteria 0-5) (redroot pigweed [22]): 5 (Herbicidal rate of 90% or more (almost completely withered)); herbicidal effect on O: lambsquarters (criteria 0-5) (lambsquarters [23]): 4 (Herbicidal rate of 70% or more and less than 90%); herbicidal effect on P: chickweed (criteria 0-5) (chickweed [24]): 5 (Herbicidal rate of 90% or more (almost completely withered)); herbicidal effect on R: persian speedwell (criteria 0-5) (persian speedwell [25]): 5 (Herbicidal rate of 90% or more (almost completely withered))
